Laboratory results reported in patent US10849904B2, “Methods for treatment of retinal disease by photoreceptor gene expression modulation” (University of Washington, priority 2015, dated 2020).

Assays:
[1] = system: rhodopsin promoter; test: Dual luciferase rhodopsin promoter reporter assay in HEK293T cells; assay type: cell-based; conditions: 10 μM, 2 days
Text: Nr2e3, Crx, and Nrl are known to activate rod gene expression by forming a complex at the promoters of rod genes. To test whether PR1 might interfere with this complex, a luciferase reporter assay was used. For this assay, the rhodopsin promoter driving firefly luciferase was co-transfected with Nrl, Nr2e3, or Crx or all of these transcription factors together into HEK293T cells. A large synergy in the activation of the rhodopsin reporter was found with the combination of these three transcription factors (FIG. 6G).
HEK293T cells were transfected with 1 μg of the luciferase reporter BR-225Luc, 1 ng of the control pRL-CMV (Promega) and 100 ng of hNRL-pCMVSport6 (Open Biosystems), hCRX-pCMVSport6 (Open Biosystems), or hNR2E3-pcDNA3.1/HisC in 24 well plates using Lipofectamine 3000 reagent (Thermo Fisher Scientific). Transfection reagents were removed the following day and replaced with media containing DMSO or 10 μM PR1 for 2 days. Cells were lysed and firefly and renilla luciferase activity was measured with the Dual-Luciferase Reporter Assay System (Promega) using a 1420 Multilabel Victor3V plate reader.

[2] = system: S opsin+ photoreceptors; test: Injection of timed-pregnant dams at E14 and E17, S opsin+ photoreceptors in P0 pups; assay type: in vivo, mouse; conditions: dams injected 100 μl of 50 mM at E14 and E17, pups analysed at P0, vs controls
Method: Nr2e3 is expressed in developing rods prior to birth, and so to test whether PR1 could affect prenatal rod development, wild type timed-pregnant dams were injected with 100 μl of 50 mM PR1 at E14 and E17, during peak S cone photoreceptor genesis and the onset of Nr2e3 expression (FIG. 7F). The pups were sacrificed at P0 and their retinas collected for staining and for quantifying S opsin+ photoreceptors. […] To determine if PR1 affected rhodopsin expression in developing rods in vivo, pups were injected with 20 μl of 50 mM PR1 or an equal volume of DMSO at P2 or P3 (FIG. 7I). The pups were sacrificed the following day and analyzed rhodopsin expression by qPCR.
Retinal explants or eyecups were fixed in 4% PFA in 1×PBS for 20 minutes at room temperature and then cryoprotected in 30% sucrose in 1×PBS overnight at 4° C. Samples were embedded in OCT (Sakura Finetek), frozen on dry ice, and then sectioned at 14-16 μm on a cryostat (Leica). Slides were blocked with a solution containing 10% Normal Horse Serum (Vector Labs) and 0.5% Triton X-100 (Sigma-Aldrich) in 1×PBS for 1 hour at room temperature and then stained overnight at 4° C. with primary antibodies diluted in blocking solution. […]

[3] = system: Explants from P12 Nrl-eGFP mice; test: P12 Nrl-eGFP mouse retinal explants, 5 DIV, immunofluorescence and EdU; assay type: cell-based
Method: Previous loss of function genetic data has shown that Nr2e3 is required for rod photoreceptor development, but it is not known whether there is a continuing requirement for Nr2e3 in mature rods. […] To further examine the effects of PR1 at these late developmental stages, the effects of PR1 on P12 retinal explants by immunohistochemical analysis were studied (FIG. 8A). Explants from P12 Nrl-eGFP mice were cultured for 5 days in either DMSO or 1 μM PR1 containing media, and then fixed and processed for immunofluorescent labeling with anti-rhodopsin and anti-S opsin antibodies.
To determine if PR1 affects retinal cells other than photoreceptors, bipolar cells (PKCα, Chx10), amacrine cells (HuCD), and Muller glia (Sox2) were quantified in explants treated with DMSO or 1 μM PR1 for 5 DIV. […] EdU (5-ethynyl-2′-deoxyuridine) was added to the cultures to determine whether PR1 might have a similar effect.
Intact retinas without RPE from mice of various strains and ages as indicated were explanted on 0.4 μm pore tissue culture inserts (Millipore) as previously described (Ueki, Y., et al., P53 is required for the developmental restriction in Muller glial proliferation in mouse retina. Glia, 2012. 60(10): p. 1579-89; Ueki, Y., et al., A transient wave of BMP signaling in the retina is necessary for Muller glial differentiation. Development, 2015. 142(3): p. 533-43. Full media (DMEM/F12 (1:1) containing 1% dialyzed FBS, 1% Pen Strep, 0.3% D+ glucose, 2% B27, and 1% N2) changes were performed every other day and small molecules were used at 0.1 μM to 10 μM. Where indicated, EdU (Invitrogen) was included in the media at 5 μg/mL and visualized by staining with the Click-iT EdU Alexa Fluor kit (Thermo Fisher Scientific). For human retinal explant cultures, tissue from 113 day post-conception fetuses was obtained from the University of Washington Birth Defects Laboratory and explanted on 0.4 μm pore tissue culture inserts (Millipore) in media (Neurobasal A with 1% FBS, 1% Pen Strep, 1% N2, 1% B27) containing 10 μM Photoregulin1 or an equal volume of DMSO.
Retinal explants or eyecups were fixed in 4% PFA in 1×PBS for 20 minutes at room temperature and then cryoprotected in 30% sucrose in 1×PBS overnight at 4° C. Samples were embedded in OCT (Sakura Finetek), frozen on dry ice, and then sectioned at 14-16 μm on a cryostat (Leica). Slides were blocked with a solution containing 10% Normal Horse Serum (Vector Labs) and 0.5% Triton X-100 (Sigma-Aldrich) in 1×PBS for 1 hour at room temperature and then stained overnight at 4° C. with primary antibodies diluted in blocking solution. Slides were washed three times with 1×PBS the following day and then incubated in secondary antibodies (Life Technologies) diluted in blocking solution for 2 hours at room temperature, stained with DAPI (Sigma-Aldrich), washed, and coverslipped using Fluoromount-G (SouthernBiotech). An Olympus FluoView FV1000 was used for confocal microscopy.

With `Cc1cc(C)cc(NC(=O)CCc2nc3sc4c(c3c(=O)[nH]2)CCCC4)c1` [PR1, N-(3,5-dimethylphenyl)-3-(4-oxo-5,6,7,8-tetrahydro-3H-[1]benzothiolo[2,3-d]pyrimidin-2-yl)propanamide] the “activation of the rhodopsin promoter reporter” value ([1]; HEK293T transfected with Crx and Nrl) was “large reduction”, the “activation of the rhodopsin promoter reporter” value ([1]; HEK293T transfected with Nr2e3, Crx and Nrl) was “large reduction” and the “number of S opsin-positive cells in pups” value [2] was “increase in the number of S opsin-positive cells”. For the same compound, the “number of S opsin+ cells in the ONL” value ([3]; P12 explants, 1 μM, 5 days) was “increase in the number of S opsin+ cells”, the “rhodopsin staining in Nrl-GFP-positive rods” value ([3]; P12 explants, 1 μM, 5 days) was “dramatic decrease in rhodopsin staining” and the “number of EdU labeled cells” value ([3]; P12 explants, 5 DIV, EdU in media) was “increase in the number of EdU labeled cells”. The “migration of the Muller glial (Sox2+) nuclei into the ONL” value ([3]; explants, 1 μM, 5 DIV) was “increase in the migration” and the “bipolar cells (PKCα, Chx10), amacrine cells (HuCD), and Muller glia (Sox2)” value ([3]; explants, 1 μM, 5 DIV, vs DMSO) was “No differences”.
